The results in this text go back to patent US12065444B2, “Substituted tetrazolo[1,5-a]pyrazines and tetrazolo[1,5-c]pyrimidines as adenosine receptor antagonists” (Crossignal Therapeutics, Inc., priority 2021, dated 2024).

The target of the experiment is human adenosine A2a receptor (Homo sapiens, UniProt P29274). Kind of experiment: Adenosine A2a receptor whole cell cyclic AMP assay. The conditions noted are these: for IC50: HEK293 cells stably expressing human A2a, 1 hour compound treatment; for inhibition at 10 µM: HEK293, 1 h, read-out: A2a @ 100 μM Adenosine (A2a cAMP IC50).
Where [1] appears, read: A2a @ 1 μM Adenosine (A2a cAMP IC50), 1 μM adenosine.
Setting [2] is: A2a @ 100 μM Adenosine (A2a cAMP IC50), 100 μM adenosine.

Sequence of human adenosine A2a receptor (P29274 whole entry): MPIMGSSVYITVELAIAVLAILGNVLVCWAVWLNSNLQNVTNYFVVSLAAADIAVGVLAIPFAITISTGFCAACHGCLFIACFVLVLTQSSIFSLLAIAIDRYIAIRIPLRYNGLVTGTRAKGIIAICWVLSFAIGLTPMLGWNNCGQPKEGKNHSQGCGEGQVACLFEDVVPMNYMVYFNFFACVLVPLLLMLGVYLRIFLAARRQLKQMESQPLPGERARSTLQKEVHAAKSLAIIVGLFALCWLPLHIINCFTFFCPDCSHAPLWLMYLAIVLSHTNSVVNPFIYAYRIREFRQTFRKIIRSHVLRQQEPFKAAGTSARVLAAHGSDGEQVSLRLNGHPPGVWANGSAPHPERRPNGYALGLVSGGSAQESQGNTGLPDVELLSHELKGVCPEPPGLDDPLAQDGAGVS

Turning to `COc1cc(-c2c(-c3ccc(F)cc3)nc(N)c3nnnn23)cc2cccnc12` [1-5, 6-(4-fluorophenyl)-5-(8-methoxyquinolin-6-yl)tetrazolo[1,5-a]pyrazin-8-amine], the IC50 under setting [1] lay in the range of 100 to 1000 nM.

As to `Cc1cc(-c2c(-c3ccc(F)cc3)nc(N)n3nnnc23)cc(Cl)n1` [1-33, 8-(2-chloro-6-methylpyridin-4-yl)-7-(4-fluorophenyl)tetrazolo[1,5-c]pyrimidin-5-amine], the 50% inhibitory concentration (IC50) under setting [1] was 100 to 1000 nM.

For the compound `Cc1ccnc2ccc(-c3c(-c4ccccc4Cl)nc(N)c4nnnn34)cc12` [1-45, 6-(2-chlorophenyl)-5-(4-methylquinolin-6-yl)tetrazolo[1,5-a]pyrazin-8-amine], under setting [1], the concentration for half-maximal inhibition (IC50) fell in the range of 100 to 1000 nM.

Take `Cc1cn2cc(-c3c(-c4ccc(F)cc4)nc(N)c4nnnn34)cc(F)c2n1` [1-21, 5-(8-fluoro-2-methylimidazo[1,2-a]pyridin-6-yl)-6-(4-fluorophenyl)tetrazolo[1,5-a]pyrazin-8-amine]: the inhibition at 10 µM was less than 25%. The compound also came in with an IC50 under setting [1] greater than 1000 nM.

As to `Nc1nc(-c2ccc(F)cc2)c(-c2ccc3ncnn3c2)n2nnnc12` [1-8, 5-([1,2,4]triazolo[1,5-a]pyridin-6-yl)-6-(4-fluorophenyl)tetrazolo[1,5-a]pyrazin-8-amine], the half-inhibitory concentration (IC50) under setting [1] was greater than 1000 nM.

For the compound `Nc1nc(-c2ccc(F)cc2)c(-c2cc3cnccc3s2)n2nnnc12` [1-16, 6-(4-fluorophenyl)-5-(thieno[3,2-c]pyridin-2-yl)tetrazolo[1,5-a]pyrazin-8-amine], the inhibition at 10 µM is less than 25%. Besides, under setting [1], the IC50 fell in the range of 100 to 1000 nM.

Under setting [1], `Cn1cc(-c2c(-c3ccc(F)cc3)nc(N)c3nnnn23)ccc1=O` [1-4, 5-(8-amino-6-(4-fluorophenyl)tetrazolo[1,5-a]pyrazin-5-yl)-1-methylpyridin-2(1H)-one] displayed a concentration for half-maximal inhibition (IC50) greater than 1000 nM.

Regarding `Nc1nc(-c2ccc(F)cc2)c(-c2cc(F)c3ncccc3c2)n2nnnc12` [1-19, 6-(4-fluorophenyl)-5-(8-fluoroquinolin-6-yl)tetrazolo[1,5-a]pyrazin-8-amine], the 50% inhibitory concentration (IC50) was 100 to 1000 nM under setting [1] and greater than 1000 nM under setting [2].

As to `Nc1nc(-c2ccc(F)cc2)c(-c2ccc3ncccc3c2)c2nnnn12` [1-37, 7-(4-fluorophenyl)-8-(quinolin-6-yl)tetrazolo[1,5-c]pyrimidin-5-amine], the concentration for half-maximal inhibition (IC50) under setting [1] is 100 to 1000 nM.

`Cn1cnc2ccc(-c3c(-c4ccc(F)cc4)nc(N)n4nnnc34)cc21` [1-30, 7-(4-fluorophenyl)-8-(1-methyl-1H-benzo[d]imidazol-6-yl)tetrazolo[1,5-c]pyrimidin-5-amine] returned an IC50 under setting [1] of less than 100 nM.

`Cc1cc(Cl)cc(-c2c(-c3ccc(F)cc3)nc(N)c3nnnn23)c1` [1-3, 5-(3-chloro-5-methylphenyl)-6-(4-fluorophenyl)tetrazolo[1,5-a]pyrazin-8-amine] had an IC50 under setting [1] greater than 1000 nM.

With `Nc1nc(-c2ccc(F)cc2)c(-c2ccc3ncsc3c2)n2nnnc12` [1-12, 5-(benzo[d]thiazol-6-yl)-6-(4-fluorophenyl)tetrazolo[1,5-a]pyrazin-8-amine], the inhibition at 10 µM was less than 25%. This compound yielded an IC50 under setting [1] of 100 to 1000 nM.

The compound `Cc1ccnc2ccc(-c3c(-c4ccc(C#N)cc4)nc(N)c4nnnn34)cc12` [1-44, 4-(8-amino-5-(4-methylquinolin-6-yl)tetrazolo[1,5-a]pyrazin-6-yl)benzonitrile] displayed a half-inhibitory concentration (IC50) under setting [1] of less than 100 nM.

Turning to `Cc1cc(-c2c(-c3ccccc3)nc(N)c3nnnn23)cc(Cl)n1` [1-32, 5-(2-chloro-6-methylpyridin-4-yl)-6-phenyltetrazolo[1,5-a]pyrazin-8-amine], under setting [1], the 50% inhibitory concentration (IC50) is 100 to 1000 nM.

`Cn1cc(-c2c(-c3ccc(F)cc3)nc(N)n3nnnc23)ccc1=O` [1-29, 5-(5-amino-7-(4-fluorophenyl)tetrazolo[1,5-c]pyrimidin-8-yl)-1-methylpyridin-2(1H)-one] showed an IC50 under setting [1] of 100 to 1000 nM.

As to `Nc1nc(-c2ccc(F)cc2)c(-c2ccc3ncncc3c2)n2nnnc12` [1-15, 6-(4-fluorophenyl)-5-(quinazolin-6-yl)tetrazolo[1,5-a]pyrazin-8-amine], the inhibition at 10 µM was less than 25%. This compound registered an IC50 under setting [1] of 100 to 1000 nM.

For `Nc1nc(-c2ccc(F)cc2)c(-c2ccc3ncc(Cl)n3c2)n2nnnc12` [1-23, 5-(3-chloroimidazo[1,2-a]pyridin-6-yl)-6-(4-fluorophenyl)tetrazolo[1,5-a]pyrazin-8-amine], the IC50 under setting [1] is less than 100 nM.

Under setting [1], `N#Cc1cc(-c2c(-c3ccc(F)cc3)nc(N)n3nnnc23)cc(Cl)n1` [1-41, 4-(5-amino-7-(4-fluorophenyl)tetrazolo[1,5-c]pyrimidin-8-yl)-6-chloropicolinonitrile] registered an IC50 of 100 to 1000 nM.

In the case of `Cc1ccnc2ccc(-c3c(-c4ccccc4C#N)nc(N)c4nnnn34)cc12` [1-49, 2-(8-amino-5-(4-methylquinolin-6-yl)tetrazolo[1,5-a]pyrazin-6-yl)benzonitrile], the IC50 under setting [1] fell in the range of 100 to 1000 nM.

With `Cc1cnc2ccc(-c3c(-c4ccc(C#N)cc4)nc(N)c4nnnn34)cn12` [1-51, 4-(8-amino-5-(3-methylimidazo[1,2-a]pyridin-6-yl)tetrazolo[1,5-a]pyrazin-6-yl)benzonitrile], the concentration for half-maximal inhibition (IC50) under setting [1] was 100 to 1000 nM.

`Nc1nc(-c2ccc(F)cc2)c(-c2ccc3ncoc3c2)n2nnnc12` [1-10, 5-(benzo[d]oxazol-6-yl)-6-(4-fluorophenyl)tetrazolo[1,5-a]pyrazin-8-amine] gave an IC50 under setting [1] of 100 to 1000 nM.

As to `Cc1cc(-c2c(-c3ccc(F)cc3)nc(N)c3nnnn23)cc(Cl)n1` [1-1, 5-(2-chloro-6-methylpyridin-4-yl)-6-(4-fluorophenyl)tetrazolo[1,5-a]pyrazin-8-amine], the IC50 under setting [1] is 100 to 1000 nM.

With `Cc1ccnc2ccc(-c3c(-c4cccc(C#N)c4)nc(N)c4nnnn34)cc12` [1-31, 3-(8-amino-5-(4-methylquinolin-6-yl)tetrazolo[1,5-a]pyrazin-6-yl)benzonitrile], under setting [1], the IC50 fell in the range of 100 to 1000 nM.

Under setting [1], `Nc1nc(-c2ccc(F)cc2)c(-c2ccc3nccc(Cl)c3c2)c2nnnn12` [1-35, 8-(4-chloroquinolin-6-yl)-7-(4-fluorophenyl)tetrazolo[1,5-c]pyrimidin-5-amine] returned an IC50 of less than 100 nM.

Turning to `Nc1nc(-c2ccc(F)cc2)c(-c2ccc3nccn3c2)n2nnnc12` [1-9, 6-(4-fluorophenyl)-5-(imidazo[1,2-a]pyridin-6-yl)tetrazolo[1,5-a]pyrazin-8-amine], the inhibition at 10 µM was less than 25%. For the same compound, the IC50 under setting [1] fell in the range of 100 to 1000 nM.

`Cc1cc(-c2c(-c3ccc(F)cc3)nc(N)n3nnnc23)cc(C(F)F)n1` [1-58, 8-(2-(difluoromethyl)-6-methylpyridin-4-yl)-7-(4-fluorophenyl)tetrazolo[1,5-c]pyrimidin-5-amine]: the concentration for half-maximal inhibition (IC50) is, setting by setting: under setting [1], 100 to 1000 nM; under setting [2], greater than 1000 nM.

For the compound `Cc1cnc2c(Cl)cc(-c3c(-c4ccc(F)cc4)nc(N)c4nnnn34)cn12` [1-24, 5-(8-chloro-3-methylimidazo[1,2-a]pyridin-6-yl)-6-(4-fluorophenyl)tetrazolo[1,5-a]pyrazin-8-amine], the IC50 was 100 to 1000 nM under setting [1] and 100 to 1000 nM under setting [2].

Compound `Cc1ccnc2ccc(-c3c(-c4ccncc4)nc(N)c4nnnn34)cc12` [1-46, 5-(4-methylquinolin-6-yl)-6-(pyridin-4-yl)tetrazolo[1,5-a]pyrazin-8-amine] came in with a 50% inhibitory concentration (IC50) under setting [1] of 100 to 1000 nM.

For the compound `Cc1cc(-c2nc(N)c3nnnn3c2-c2ccc(F)cc2)cc(Cl)n1` [1-2, 6-(2-chloro-6-methylpyridin-4-yl)-5-(4-fluorophenyl)tetrazolo[1,5-a]pyrazin-8-amine], under setting [1], the IC50 was greater than 1000 nM.

In turn, `Cc1cc(-c2c(-c3ccccc3F)nc(N)c3nnnn23)cc(Cl)n1` [1-26, 5-(2-chloro-6-methylpyridin-4-yl)-6-(2-fluorophenyl)tetrazolo[1,5-a]pyrazin-8-amine] registered an IC50 under setting [1] of 100 to 1000 nM.

Consider `Nc1nc(-c2ccc(F)cc2)c(-c2ccc3ncccc3c2)n2nnnc12` [1-11, 6-(4-fluorophenyl)-5-(quinolin-6-yl)tetrazolo[1,5-a]pyrazin-8-amine], for which the inhibition at 10 µM is less than 25%. The half-inhibitory concentration (IC50) under setting [1] is less than 100 nM.

Turning to `Nc1nc(-c2ccc(F)cc2)c(-c2cc(F)c3nccn3c2)n2nnnc12` [1-14, 5-(8-fluoroimidazo[1,2-a]pyridin-6-yl)-6-(4-fluorophenyl)tetrazolo[1,5-a]pyrazin-8-amine], the inhibition at 10 µM was less than 25%. The compound further had a half-maximal inhibitory concentration (IC50) under setting [1] of 100 to 1000 nM.

In the case of `N#Cc1cnc2ccc(-c3c(-c4ccc(F)cc4)nc(N)c4nnnn34)cn12` [1-22, 6-(8-amino-6-(4-fluorophenyl)tetrazolo[1,5-a]pyrazin-5-yl)imidazo[1,2-a]pyridine-3-carbonitrile], the inhibition at 10 µM was less than 25%. Under setting [1], the IC50 was less than 100 nM.

`Cc1cc(-c2c(-c3ccc(F)cc3)nc(N)n3nnnc23)cc(C)n1` [1-28, 8-(2,6-dimethylpyridin-4-yl)-7-(4-fluorophenyl)tetrazolo[1,5-c]pyrimidin-5-amine]: the inhibition at 10 µM is less than 25%. The same compound came in with an IC50 under setting [1] of less than 100 nM.

Regarding `COc1ccc(-c2nc(N)c3nnnn3c2-c2ccc3ncn(C)c3c2)cc1` [1-53, 6-(4-methoxyphenyl)-5-(1-methyl-1H-benzo[d]imidazol-6-yl)tetrazolo[1,5-a]pyrazin-8-amine], the inhibition at 10 µM was less than 25%. Moreover, the IC50 under setting [1] is less than 100 nM.

In turn, `Cc1ccnc2ccc(-c3c(-c4cccnc4)nc(N)c4nnnn34)cc12` [1-47, 5-(4-methylquinolin-6-yl)-6-(pyridin-3-yl)tetrazolo[1,5-a]pyrazin-8-amine] registered an IC50 under setting [1] of 100 to 1000 nM.

In the case of `Cc1cc(-c2c(-c3cccc(F)c3)nc(N)c3nnnn23)cc(Cl)n1` [1-27, 5-(2-chloro-6-methylpyridin-4-yl)-6-(3-fluorophenyl)tetrazolo[1,5-a]pyrazin-8-amine], the 50% inhibitory concentration (IC50) under setting [1] lay within 100 to 1000 nM.

Under setting [1], `Cn1cnc2ccc(-c3c(-c4ccc(C#N)cc4)nc(N)n4nnnc34)cc21` [1-52, 4-(5-amino-8-(1-methyl-1H-benzo[d]imidazol-6-yl)tetrazolo[1,5-c]pyrimidin-7-yl)benzonitrile] yielded a concentration for half-maximal inhibition (IC50) of 100 to 1000 nM.

Broadly, the IC50 is the concentration at which inhibition is half-maximal. A low value points to inhibition by little substance.
